≈ marks a conversion by molar mass, not a printed value. Where two headings read alike, the source gives them in different places.
Legend:
C. glabrata = assay: In vitro MIC susceptibility testing, broth microdilution; format: cell-based, Candida glabrata
Protocol: (§1) In vitro MIC susceptibility testing. […]. Amphotericin B was used as a positive control and the MICs range were 0.25-1.5 μg/mL. Six untreated media controls were included on each plate. The plates were incubated at 33° C. for 72 h. The MICs were determined as the lowest concentration that inhibited visible growth. The MICs were read at 24, 48, and 72 hours, respectively. […]

C. albicans = assay: Time kill experiments; format: cell-based, Candida albicans; details: C. albicans (K-1, FIG. 6B), 1x to 16x MIC, 0-48 h
Protocol: (§2) FIGS. 6A-C show time-kill curves for turbinmicin against (6A) C. auris B11211, (6B) C. albicans K-1, and (6C) C. glabrata 4720.
(§3) Time Kill Experiments. Fresh Candida colonies from an overnight growth were added to normal saline and the turbidity was adjusted to a 0.6 transmittance at 530 nm to provide a standard suspension (1*10^6 CFU/mL). This suspension was diluted with RPMI 1640 medium buffered with MOPS and a standard compound stock solution to achieve a starting inoculum of approximately 10^5 CFU/ml. Each 20 mL culture (RPMI 1640 medium buffered with MOPS) was incubated at 35° C. with constant shaking, and 0.1 mL samples were withdrawn for the determination of fungal counts at 0, 2, 4, 6, 8, 24 and 48 h. Colony counts were determined by viable counts on sabouraud agar plate (SDA) after incubation for 48 h. Growth control for each organism were prepared without antifungal and run in parallel.

C. auris [1] = assay: In vitro MIC susceptibility testing, broth microdilution; format: cell-based, Candida auris; details: Candidozyma auris
Protocol: as §1

[2] = Solubility of turbinmicin in aqueous solvents; format: physicochemical
From the text: In some embodiments, the pharmaceutical composition comprises turbinmicin and a pharmaceutically acceptable carrier comprising aqueous DMSO, e.g., DMSO in water, DMSO in 0.9% saline or DMSO in phosphate buffered saline (e.g., about 0.01 to about 0.1 molar Na/K phosphate buffer, about pH 7.4). In some embodiments the amount of DMSO in aqueous solution varies from at least about 1% by weight to about 80% by weight. […]. As turbinmicin had limited aqueous solubility, various solubilizing conditions (Table 4) were tested.

C. auris [3] = assay: Time kill experiments; format: cell-based, Candida auris; details: C. auris (B11211, FIG. 6A), 1x to 16x MIC, 0-48 h
Protocol: as §2, §3

sheep red blood cells = assay: Hemolysis assay; format: cell-based; details: 1 h, concentrations exceeding the MIC by 1000-fold
Protocol: Hemolysis Assay. Assays were performed in 384-well plates using sheep blood (0.1% triton as the positive control). Sheep's blood (Ward's Science) was washed with PBS and diluted to a concentration of 6×10^7 red blood cells per ml. A volume of 50 μL of blood was incubated with compound for 1 h, and subsequently pelleted at 4000 rpm for 10 min. Thirty microliters of supernatant were transferred to a clear plate and OD570 was read. An increase in OD indicated the red blood cell lysis and hemolytic activity.

`C/C=C/C=C/C=C/C(=O)OC1C=CCC2C(=O)c3c(O)c4c5c(c3OC12)OCOC5CC1C(=O)c2cc(C)[nH]c(=O)c2C(=O)C41O` (stereo not drawn) [Turbinmicin, turbinmicin] showed an MIC (C. glabrata; Nakaseomyces glabratus) of 0.5 µg/mL (≈ 0.797 µM), an MIC (C. glabrata; strain 513) of 0.5 µg/mL (≈ 0.797 µM) and an MIC (C. glabrata; strain 729, Fks2_HS1_S663P) of 0.5 µg/mL (≈ 0.797 µM). The MIC (C. glabrata; strain 5592) was 0.5 µg/mL (≈ 0.797 µM), the MIC (C. glabrata; strain 14378, Fks1_HS1_S629P) was 0.5 µg/mL (≈ 0.797 µM) and the time-kill activity (C. albicans) was “Fungacidal activity was observed”. It also gave an MIC (C. auris [1]; strain B11104) of 0.5 µg/mL (≈ 0.797 µM), an MIC (C. auris [1]; strain B11203) of 0.5 µg/mL (≈ 0.797 µM) and an MIC (C. auris [1]; strain B11211, resistant to amphotericin B, fluconazole, micafungin, read-out: MIC) of 0.25 µg/mL (≈ 0.398 µM). For the same compound, the MIC (C. auris [1]; strain B11219) was 0.25 µg/mL (≈ 0.398 µM), the MIC (C. auris [1]; strain B11220) was 0.125 µg/mL (≈ 0.199 µM) and the MIC (C. auris [1]; strain B11221) was 0.5 µg/mL (≈ 0.797 µM). The MIC (C. auris [1]; strain B11785) was 0.25 µg/mL (≈ 0.398 µM), the MIC (C. auris [1]; strain B11799) was 0.5 µg/mL (≈ 0.797 µM) and the MIC (C. auris [1]; strain B11801) was 0.5 µg/mL (≈ 0.797 µM). The MIC (C. auris [1]; strain B11804) was 0.5 µg/mL (≈ 0.797 µM), the “Highest Turbmicin conc. Achieved” value ([2]; No. 2, DMSO (1% in PBS)) was at most 0.5 mg/mL and the “Highest Turbmicin conc. Achieved” value ([2]; No. 4, DMSO (10% in PBS)) was 2 mg/mL. The “Highest Turbmicin conc. Achieved” value ([2]; No. 5, PEG 400 (50% in PBS)) was at most 0.5 mg/mL, the “Highest Turbmicin conc. Achieved” value ([2]; No. 6, Kolliphor EL (10% in PBS)) was at most 0.5 mg/mL and the “Highest Turbmicin conc. Achieved” value ([2]; No. 7, Tween 80 (2% in PBS)) was at most 0.5 mg/mL. The solubility ([2]; aqueous with cosolvent or surfactant or cyclodextrin, mixtures of DMSO and water, read-out: concentration solubilized) was over 500 µg/mL, the solubility ([2]; pH 7.4, aqueous buffer, No. 1, PBS, read-out: Highest Turbmicin conc. Achieved) was at most 500 µg/mL and the solubility ([2]; pH 7.4, aqueous with cosolvent or surfactant or cyclodextrin, No. 3, DMSO (5% in PBS), read-out: Highest Turbmicin conc. Achieved) was at most 1000 µg/mL. For the same compound, the solubility ([2]; water, read-out: water solubility) was under 500 µg/mL, the time-kill activity (C. auris [3]) was “Fungacidal activity was observed” and the “red blood cell toxicity (hemolysis)” value (sheep red blood cells) was “did not exhibit red blood cell toxicity”.

— patent US12240859B2, “Turbinmicin compounds, compositions and uses thereof” (Wisconsin Alumni Research Foundation, priority 2019, dated 2025)
